Results taken from ChEMBL document CHEMBL3885881, “DrugMatrix”.

Species on record: Rattus norvegicus
Experiment: DrugMatrix - Regimen: Daily Repeat
Format: toxicity, organism-based, Sprague-Dawley
Set-up: regimen Daily Repeat, gender Male, age 6-8 weeks
Details: in vivo, sc, route subcutaneous, vehicle 100 % WATER; for ABSOLUTE BASOPHIL / ABSOLUTE EOSINOPHIL / ABSOLUTE LYMPHOCYTE / ABSOLUTE MONOCYTE / ABSOLUTE SEGMENTED NEUTROPHIL / BASOPHIL / EOSINOPHIL / ERYTHROCYTE COUNT / HEMATOCRIT / HEMOGLOBIN / LEUKOCYTE COUNT / LYMPHOCYTE / MEAN CORPUSCULAR HEMOGLOBIN / MEAN CORPUSCULAR HEMOGLOBIN CONCENTRATION / MEAN CORPUSCULAR VOLUME / MONOCYTE / NEUTROPHIL / NUCLEATED RED BLOOD CELLS / PLATELET COUNT: tissue Blood; for ALANINE AMINOTRANSFERASE / ALBUMIN / ALKALINE PHOSPHATASE / ASPARTATE AMINOTRANSFERASE / BLOOD UREA NITROGEN / CARBON DIOXIDE / CHLORIDE / CHOLESTEROL / CREATINE PHOSPHOKINASE / CREATININE / GLUCOSE / LACTATE DEHYDROGENASE / LIPASE / PHOSPHORUS / POTASSIUM / SODIUM / TOTAL BILIRUBIN / TOTAL PROTEIN / URIC ACID: tissue Plasma
[1] = 20 mg/kg, 72 h, dose level Low, time 3 day
[2] = 20 mg/kg, 120 h, dose level Low, time 5 day
[3] = 71 mg/kg, 72 h, dose level High, time 3 day
[4] = 71 mg/kg, 120 h, dose level High, time 5 day

Structure (SMILES): CCN(CC)CC(=O)Nc1c(C)cccc1C [LIDOCAINE]
- ABSOLUTE BASOPHIL [1]: 0 CELLS/uL
- ABSOLUTE EOSINOPHIL [1]: 58 CELLS/uL
- ABSOLUTE LYMPHOCYTE [1]: 13101.33 CELLS/uL
- ABSOLUTE MONOCYTE [1]: 107 CELLS/uL
- ABSOLUTE SEGMENTED NEUTROPHIL [1]: 1100.33 CELLS/uL
- BASOPHIL [1]: 0%
- EOSINOPHIL [1]: 0.33%
- ERYTHROCYTE COUNT [1]: 5.32 x10E6/uL
- HEMATOCRIT [1]: 35.17%
- HEMOGLOBIN [1]: 13.77 G/DL
- LEUKOCYTE COUNT [1]: 14.37 x10E3/uL
- LYMPHOCYTE [1]: 91.33%
- MEAN CORPUSCULAR HEMOGLOBIN [1]: 25.9 pg
- MEAN CORPUSCULAR HEMOGLOBIN CONCENTRATION [1]: 39.17 G/DL
- MEAN CORPUSCULAR VOLUME [1]: 66.2 fL
- MONOCYTE [1]: 0.67%
- NEUTROPHIL [1]: 7.67%
- NUCLEATED RED BLOOD CELLS [1]: 0 /100WBC
- PLATELET COUNT [1]: 1245 x10E3/uL
- ALANINE AMINOTRANSFERASE [1]: 52.67 u/L
- ALBUMIN [1]: 4.23 G/DL
- ALKALINE PHOSPHATASE [1]: 369 u/L
- ASPARTATE AMINOTRANSFERASE [1]: 87.33 u/L
- BLOOD UREA NITROGEN [1]: 16 mg/dL
- CARBON DIOXIDE [1]: 26.67 mmol/L
- CHLORIDE [1]: 102.67 MEQ/L
- CHOLESTEROL [1]: 79.33 mg/dL
- CREATINE PHOSPHOKINASE [1]: 215.67 u/L
- CREATININE [1]: 0.21 mg/dL
- GLUCOSE [1]: 154.67 mg/dL
- LACTATE DEHYDROGENASE [1]: 355.67 u/L
- LIPASE [1]: 9.67 u/L
- PHOSPHORUS [1]: 15.3 mg/dL
- POTASSIUM [1]: 7.3 MEQ/L
- SODIUM [1]: 148.67 MEQ/L
- TOTAL BILIRUBIN [1]: 0.23 mg/dL
- TOTAL PROTEIN [1]: 6.03 G/DL
- URIC ACID [1]: 1.9 mg/dL
- ABSOLUTE BASOPHIL [2]: 0 CELLS/uL
- ABSOLUTE EOSINOPHIL [2]: 102.67 CELLS/uL
- ABSOLUTE LYMPHOCYTE [2]: 14629.33 CELLS/uL
- ABSOLUTE MONOCYTE [2]: 338.67 CELLS/uL
- ABSOLUTE SEGMENTED NEUTROPHIL [2]: 1862.67 CELLS/uL
- BASOPHIL [2]: 0%
- EOSINOPHIL [2]: 0.67%
- ERYTHROCYTE COUNT [2]: 5.48 x10E6/uL
- HEMATOCRIT [2]: 33.93%
- HEMOGLOBIN [2]: 13.57 G/DL
- LEUKOCYTE COUNT [2]: 16.93 x10E3/uL
- LYMPHOCYTE [2]: 86.67%
- MEAN CORPUSCULAR HEMOGLOBIN [2]: 24.77 pg
- MEAN CORPUSCULAR HEMOGLOBIN CONCENTRATION [2]: 40 G/DL
- MEAN CORPUSCULAR VOLUME [2]: 61.93 fL
- MONOCYTE [2]: 2%
- NEUTROPHIL [2]: 10.67%
- NUCLEATED RED BLOOD CELLS [2]: 0 /100WBC
- PLATELET COUNT [2]: 1256.33 x10E3/uL
- ALANINE AMINOTRANSFERASE [2]: 59.33 u/L
- ALBUMIN [2]: 3.73 G/DL
- ALKALINE PHOSPHATASE [2]: 375.67 u/L
- ASPARTATE AMINOTRANSFERASE [2]: 92 u/L
- BLOOD UREA NITROGEN [2]: 17.67 mg/dL
- CARBON DIOXIDE [2]: 26 mmol/L
- CHLORIDE [2]: 108 MEQ/L
- CHOLESTEROL [2]: 77.33 mg/dL
- CREATINE PHOSPHOKINASE [2]: 284 u/L
- CREATININE [2]: 0.28 mg/dL
- GLUCOSE [2]: 183.33 mg/dL
- LACTATE DEHYDROGENASE [2]: 154.67 u/L
- LIPASE [2]: 7.67 u/L
- PHOSPHORUS [2]: 13.6 mg/dL
- POTASSIUM [2]: 6.31 MEQ/L
- SODIUM [2]: 149.97 MEQ/L
- TOTAL BILIRUBIN [2]: 0.2 mg/dL
- TOTAL PROTEIN [2]: 5.93 G/DL
- URIC ACID [2]: 2.2 mg/dL
- ABSOLUTE BASOPHIL [3]: 0 CELLS/uL
- ABSOLUTE EOSINOPHIL [3]: 49.33 CELLS/uL
- ABSOLUTE LYMPHOCYTE [3]: 11993.67 CELLS/uL
- ABSOLUTE MONOCYTE [3]: 172.33 CELLS/uL
- ABSOLUTE SEGMENTED NEUTROPHIL [3]: 684.67 CELLS/uL
- BASOPHIL [3]: 0%
- EOSINOPHIL [3]: 0.33%
- ERYTHROCYTE COUNT [3]: 5.73 x10E6/uL
- HEMATOCRIT [3]: 35.87%
- HEMOGLOBIN [3]: 14.23 G/DL
- LEUKOCYTE COUNT [3]: 12.9 x10E3/uL
- LYMPHOCYTE [3]: 92.67%
- MEAN CORPUSCULAR HEMOGLOBIN [3]: 24.83 pg
- MEAN CORPUSCULAR HEMOGLOBIN CONCENTRATION [3]: 39.7 G/DL
- MEAN CORPUSCULAR VOLUME [3]: 62.57 fL
- MONOCYTE [3]: 1.33%
- NEUTROPHIL [3]: 5.67%
- NUCLEATED RED BLOOD CELLS [3]: 0 /100WBC
- PLATELET COUNT [3]: 1268.67 x10E3/uL
- ALANINE AMINOTRANSFERASE [3]: 46.33 u/L
- ALBUMIN [3]: 4.37 G/DL
- ALKALINE PHOSPHATASE [3]: 401 u/L
- ASPARTATE AMINOTRANSFERASE [3]: 83.67 u/L
- BLOOD UREA NITROGEN [3]: 14.67 mg/dL
- CARBON DIOXIDE [3]: 31.33 mmol/L
- CHLORIDE [3]: 101 MEQ/L
- CHOLESTEROL [3]: 76 mg/dL
- CREATINE PHOSPHOKINASE [3]: 167 u/L
- CREATININE [3]: 0.16 mg/dL
- GLUCOSE [3]: 163.67 mg/dL
- LACTATE DEHYDROGENASE [3]: 124.67 u/L
- LIPASE [3]: 8.67 u/L
- PHOSPHORUS [3]: 15.9 mg/dL
- POTASSIUM [3]: 7.01 MEQ/L
- SODIUM [3]: 145.9 MEQ/L
- TOTAL BILIRUBIN [3]: 0.17 mg/dL
- TOTAL PROTEIN [3]: 6.07 G/DL
- URIC ACID [3]: 1.8 mg/dL
- ABSOLUTE BASOPHIL [4]: 0 CELLS/uL
- ABSOLUTE EOSINOPHIL [4]: 73.33 CELLS/uL
- ABSOLUTE LYMPHOCYTE [4]: 17902.33 CELLS/uL
- ABSOLUTE MONOCYTE [4]: 276 CELLS/uL
- ABSOLUTE SEGMENTED NEUTROPHIL [4]: 1781.67 CELLS/uL
- BASOPHIL [4]: 0%
- EOSINOPHIL [4]: 0.33%
- ERYTHROCYTE COUNT [4]: 5.66 x10E6/uL
- HEMATOCRIT [4]: 36.7%
- HEMOGLOBIN [4]: 14.53 G/DL
- LEUKOCYTE COUNT [4]: 20.03 x10E3/uL
- LYMPHOCYTE [4]: 89%
- MEAN CORPUSCULAR HEMOGLOBIN [4]: 25.67 pg
- MEAN CORPUSCULAR HEMOGLOBIN CONCENTRATION [4]: 39.6 G/DL
- MEAN CORPUSCULAR VOLUME [4]: 64.93 fL
- MONOCYTE [4]: 1.33%
- NEUTROPHIL [4]: 9.33%
- NUCLEATED RED BLOOD CELLS [4]: 0 /100WBC
- PLATELET COUNT [4]: 1384.67 x10E3/uL
- ALANINE AMINOTRANSFERASE [4]: 60 u/L
- ALBUMIN [4]: 4.13 G/DL
- ALKALINE PHOSPHATASE [4]: 376.33 u/L
- ASPARTATE AMINOTRANSFERASE [4]: 98.33 u/L
- BLOOD UREA NITROGEN [4]: 15.33 mg/dL
- CARBON DIOXIDE [4]: 33.67 mmol/L
- CHLORIDE [4]: 101 MEQ/L
- CHOLESTEROL [4]: 68.33 mg/dL
- CREATINE PHOSPHOKINASE [4]: 240.33 u/L
- CREATININE [4]: 0.42 mg/dL
- GLUCOSE [4]: 147.33 mg/dL
- LACTATE DEHYDROGENASE [4]: 198 u/L
- LIPASE [4]: 10.67 u/L
- PHOSPHORUS [4]: 14.23 mg/dL
- POTASSIUM [4]: 6.88 MEQ/L
- SODIUM [4]: 148.27 MEQ/L
- TOTAL BILIRUBIN [4]: 0.2 mg/dL
- TOTAL PROTEIN [4]: 6.17 G/DL
- URIC ACID [4]: 1.4 mg/dL
